Assay results from patent publication US12427187B2, “Glucose-responsive insulin conjugates” (priority 2019, dated 2025).
Where two headings read alike, the source gives them in different places.

Columns and labels:
[1] = molecular target: human IR(B) (Homo sapiens, UniProt P06213); experiment: Insulin receptor phosphorylation assay (MSD pIR); assay type: cell-based; details: CHO cells expressing human IR(B), IP = inflection point, read-out: IR Activation IP
Method: CHO cells stably expressing human IR(B) were in grown in F12 cell media containing 10% FBS and antibiotics (G418, Penicillin/Strepavidin) for at least 8 hr, and then serum starved by switching to F12 media containing 0.5% BSA (insulin-free) in place of FBS for overnight growth. Cells were harvested and frozen in aliquots for use in the MSD pIR assay. Briefly, the frozen cells were plated in either 96-well (40,000 cells/well, Methods A) or 384-well (10,000 cells/well, Method B) clear tissue culture plates and allowed to recover. IOC molecules at the appropriate concentrations were added and the cells incubated for 8 min at 37° C. The media was aspirated and chilled MSD cell lysis buffer was added as per MSD kit instructions. The cells were lysed on ice for 40 min and the lysate then mixed for 10 min at rt. The lysate was transferred to the MSD kit pIR detection plates. The remainder of the assay was carried out following the MSD kit recommended protocol.
The in vitro biological activities towards insulin receptor (IR) were measured by either ligand competition assays or functional phosphorylation assays, as described above, labeled as following: Method A: IR phosphorylation assay based on 96-well; Method B: IR phosphorylation assay based on 384-well with automated liquid dispense; Method C: cell-based IR binding assay; Method D: SPA IR binding assay method E; Method E: MRC1 assay was performed in a 96-well plate; Method F: MRC1 assay was performed in a 384-well plate.

[2] = molecular target: T1, Human macrophage mannose receptor 1 (MRC1) (Homo sapiens, UniProt P22897); experiment: MRC1 competition binding assay with Eu-mannosylated-BSA; details: IP = inflection point, read-out: MRC1 Binding IP
T1 sequence (P22897 19-1456): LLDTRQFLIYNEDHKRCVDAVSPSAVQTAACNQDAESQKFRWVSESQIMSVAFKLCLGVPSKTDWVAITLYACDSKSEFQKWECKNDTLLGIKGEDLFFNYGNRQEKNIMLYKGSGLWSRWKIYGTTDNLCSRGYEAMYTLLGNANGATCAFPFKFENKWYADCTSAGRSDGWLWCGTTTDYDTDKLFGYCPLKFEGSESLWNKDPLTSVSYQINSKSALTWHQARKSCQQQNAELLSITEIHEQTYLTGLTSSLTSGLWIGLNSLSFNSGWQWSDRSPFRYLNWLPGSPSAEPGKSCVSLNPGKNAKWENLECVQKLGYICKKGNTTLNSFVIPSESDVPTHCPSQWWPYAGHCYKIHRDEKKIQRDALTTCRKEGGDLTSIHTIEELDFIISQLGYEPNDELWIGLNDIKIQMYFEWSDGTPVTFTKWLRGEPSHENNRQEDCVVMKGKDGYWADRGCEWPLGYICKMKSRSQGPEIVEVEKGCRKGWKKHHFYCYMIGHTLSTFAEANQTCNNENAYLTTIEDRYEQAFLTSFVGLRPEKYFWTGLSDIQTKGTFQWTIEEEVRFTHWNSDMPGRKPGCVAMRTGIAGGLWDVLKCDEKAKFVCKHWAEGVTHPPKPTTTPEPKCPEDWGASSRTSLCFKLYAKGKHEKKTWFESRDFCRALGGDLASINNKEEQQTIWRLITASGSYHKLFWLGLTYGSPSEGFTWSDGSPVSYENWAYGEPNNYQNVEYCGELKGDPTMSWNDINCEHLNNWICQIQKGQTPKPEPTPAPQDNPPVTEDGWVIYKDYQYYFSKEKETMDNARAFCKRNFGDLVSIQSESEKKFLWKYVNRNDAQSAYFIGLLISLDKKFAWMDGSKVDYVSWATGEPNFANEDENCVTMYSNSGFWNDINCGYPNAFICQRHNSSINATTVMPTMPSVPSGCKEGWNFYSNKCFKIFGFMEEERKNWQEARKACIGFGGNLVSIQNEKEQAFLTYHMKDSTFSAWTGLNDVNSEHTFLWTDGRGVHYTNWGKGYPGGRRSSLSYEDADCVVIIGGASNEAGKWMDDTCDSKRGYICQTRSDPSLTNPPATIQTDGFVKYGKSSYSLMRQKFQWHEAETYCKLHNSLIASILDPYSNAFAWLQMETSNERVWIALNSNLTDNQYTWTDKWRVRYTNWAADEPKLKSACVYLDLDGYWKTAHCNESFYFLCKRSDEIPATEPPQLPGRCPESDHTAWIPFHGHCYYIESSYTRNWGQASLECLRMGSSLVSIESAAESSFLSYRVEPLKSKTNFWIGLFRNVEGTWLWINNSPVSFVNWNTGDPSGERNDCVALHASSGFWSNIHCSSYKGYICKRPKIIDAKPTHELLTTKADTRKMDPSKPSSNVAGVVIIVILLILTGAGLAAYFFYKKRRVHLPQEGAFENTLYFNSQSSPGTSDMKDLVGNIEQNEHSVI
Method: The competition binding assay for Human macrophage mannose receptor 1 (MRC1) utilized a ligand, mannosylated-BSA labeled with the DELFIA Eu-N1-ITC reagent, as reported in the literature. Assay was performed either in a 96-well plate with 100 μL well volume (Method E) or in a 384-well plate with 25 μL well volume (Method F). […] The antibody was incubated in the plate for 1 hr at rt with shaking. The plate was washed with wash buffer 3-5 times followed by addition of MRC1 (2 ng/μl final concentration) in PBS containing 1% stabilizer BSA. The plate was incubated at rt with gentle shaking for 1 hr. The plate was washed three times with wash buffer. The IOC molecules in 12.5 μL (or 50 μL depending on plate format) buffer at appropriate concentrations were added followed by 12.5 μL (or 50 μL) Eu-mannosylated-BSA (0.1 nm final concentration) in 50 mM Tris, pH 7.5 containing 100 mM NaCl, 5 mM CaCl2, 1 mM MgCl2 and 0.2% stabilizer BSA. The plate was incubated for 2 hrs at rt with shaking followed by washing three times with wash buffer.

[3] = Method B: IR phosphorylation assay, 384-well with automated liquid dispense

Sequence of human IR(B) (P06213 28-758 limits assumed): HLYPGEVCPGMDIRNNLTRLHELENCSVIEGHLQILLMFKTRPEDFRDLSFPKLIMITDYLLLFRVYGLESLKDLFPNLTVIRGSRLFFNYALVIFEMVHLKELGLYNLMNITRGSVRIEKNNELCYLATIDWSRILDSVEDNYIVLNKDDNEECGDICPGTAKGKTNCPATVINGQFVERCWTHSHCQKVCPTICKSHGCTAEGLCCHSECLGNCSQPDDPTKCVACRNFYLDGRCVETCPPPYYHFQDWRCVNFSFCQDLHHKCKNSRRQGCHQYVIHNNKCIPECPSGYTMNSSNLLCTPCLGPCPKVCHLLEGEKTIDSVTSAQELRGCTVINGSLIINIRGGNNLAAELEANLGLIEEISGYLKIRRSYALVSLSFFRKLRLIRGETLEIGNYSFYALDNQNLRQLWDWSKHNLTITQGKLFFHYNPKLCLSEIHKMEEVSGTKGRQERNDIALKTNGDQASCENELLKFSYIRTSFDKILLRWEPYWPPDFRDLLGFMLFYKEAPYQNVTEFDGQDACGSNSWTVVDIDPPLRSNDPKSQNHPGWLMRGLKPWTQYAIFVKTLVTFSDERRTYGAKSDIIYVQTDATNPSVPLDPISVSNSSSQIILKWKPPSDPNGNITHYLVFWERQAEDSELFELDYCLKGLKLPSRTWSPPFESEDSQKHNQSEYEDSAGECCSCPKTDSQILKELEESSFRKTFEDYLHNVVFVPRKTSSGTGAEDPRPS
Sequence of human IR(B) (P06213 763-1382 partner limits assumed): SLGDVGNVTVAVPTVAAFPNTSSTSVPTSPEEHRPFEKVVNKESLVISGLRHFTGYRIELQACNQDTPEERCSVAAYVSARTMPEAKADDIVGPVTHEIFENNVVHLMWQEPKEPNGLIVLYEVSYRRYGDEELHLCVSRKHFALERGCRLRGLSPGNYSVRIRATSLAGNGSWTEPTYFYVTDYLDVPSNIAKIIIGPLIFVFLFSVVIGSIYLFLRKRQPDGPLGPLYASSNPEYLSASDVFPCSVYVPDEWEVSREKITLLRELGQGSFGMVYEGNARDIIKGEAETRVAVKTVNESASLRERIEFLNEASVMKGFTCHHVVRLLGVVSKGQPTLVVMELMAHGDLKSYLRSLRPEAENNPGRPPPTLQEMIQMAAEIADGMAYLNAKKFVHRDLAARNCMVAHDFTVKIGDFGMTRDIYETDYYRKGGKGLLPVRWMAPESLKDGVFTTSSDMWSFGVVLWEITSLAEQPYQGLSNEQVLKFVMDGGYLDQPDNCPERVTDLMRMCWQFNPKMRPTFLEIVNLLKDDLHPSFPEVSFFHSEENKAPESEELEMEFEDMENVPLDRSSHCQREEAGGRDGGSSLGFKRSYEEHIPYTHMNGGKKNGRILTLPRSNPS

| Compound | EC50 ([1]; Method A: IR phosphorylation assay, 96-well) [nM] | IC50 ([2]; Method E: 96-well plate) [nM] | EC50 [1, 3] [nM] | IC50 ([2]; Method F: 384-well plate) [nM] |
| --- | --- | --- | --- | --- |
| CC(=O)[C@H](CCCCN)NC(=O)CCCCC(=O)N[C@@H](CCC(=O)NCCO[C@@H]1O[C@@H](C)[C@@H](O)[C@@H](O)[C@@H]1O)C(=O)N[C@@H](CCC(=O)NCCO[C@@H]1O[C@@H](C)[C@@H](O)[C@@H](O)[C@@H]1O)C(=O)N[C@@H](CCC(=O)NCCO[C@@H]1O[C@@H](C)[C@@H](O)[C@@H](O)[C@@H]1O)C(=O)NCCO[C@@H]1O[C@@H](C)[C@@H](O)[C@@H](O)[C@@H]1O [IOC-19] | 0.81 | 16 |  |  |
| CC(=O)[C@H](CCCCN)NC(=O)CCCCCNC(=O)[C@H](CCCCNC(=O)CCCC(=O)N[C@@H](CCC(=O)N(CCOC1O[C@H](CO)[C@@H](O)[C@H](O)[C@@H]1O)CCOC1O[C@H](CO)[C@@H](O)[C@H](O)[C@@H]1O)C(=O)N(CCOC1O[C@H](CO)[C@@H](O)[C@H](O)[C@@H]1O)CCOC1O[C@H](CO)[C@@H](O)[C@H](O)[C@@H]1O)NC(=O)[C@H](CCCCNC(=O)CCCC(=O)N[C@@H](CCC(=O)N(CCOC1O[C@H](CO)[C@@H](O)[C@H](O)[C@@H]1O)CCOC1O[C@H](CO)[C@@H](O)[C@H](O)[C@@H]1O)C(=O)N(CCOC1O[C@H](CO)[C@@H](O)[C@H](O)[C@@H]1O)CCOC1O[C@H](CO)[C@@H](O)[C@H](O)[C@@H]1O)NC(=O)CCCC(=O)N[C@@H](CCC(=O)N(CCOC1O[C@H](CO)[C@@H](O)[C@H](O)[C@@H]1O)CCOC1O[C@H](CO)[C@@H](O)[C@H](O)[C@@H]1O)C(=O)N(CCOC1O[C@H](CO)[C@@H](O)[C@H](O)[C@@H]1O)CCOC1O[C@H](CO)[C@@H](O)[C@H](O)[C@@H]1O (stereo partly shown) [IOC-62] |  | 11.5 | 2.11 |  |
| CC(=O)[C@H](CCCCN)NC(=O)CCCCCNC(=O)[C@H](CCCCNC(=O)CCCCCNC(=O)CN(CC(=O)NCCO[C@@H]1O[C@@H](C)[C@@H](O)[C@@H](O)[C@@H]1O)CC(=O)N(CCOC1C[C@H](CO)[C@@H](O)[C@H](O)[C@@H]1O)CCOC1O[C@H](CO)[C@@H](O)[C@H](O)[C@@H]1O)NC(=O)[C@H](CCCCNC(=O)CCCCCNC(=O)CN(CC(=O)NCCO[C@@H]1O[C@@H](C)[C@@H](O)[C@@H](O)[C@@H]1O)CC(=O)N(CCOC1C[C@H](CO)[C@@H](O)[C@H](O)[C@@H]1O)CCOC1O[C@H](CO)[C@@H](O)[C@H](O)[C@@H]1O)NC(=O)CCCCCNC(=O)CN(CC(=O)NCCO[C@@H]1O[C@@H](C)[C@@H](O)[C@@H](O)[C@@H]1O)CC(=O)N(CCOC1O[C@H](CO)[C@@H](O)[C@H](O)[C@@H]1O)CCOC1O[C@H](CO)[C@@H](O)[C@H](O)[C@@H]1O (stereo partly shown) [IOC-59] |  |  | 1.98 | 2.58 |
| CC(=O)[C@H](CCCCN)NC(=O)CCCCCNC(=O)[C@H](CCCCNC(=O)CCCCCNC(=O)CN(CC(=O)N(CCOC1O[C@H](CO)[C@@H](O)[C@H](O)[C@@H]1O)CCOC1O[C@H](CO)[C@@H](O)[C@H](O)[C@@H]1O)CC(=O)N(CCOC1O[C@H](CO)[C@@H](O)[C@H](O)[C@@H]1O)CCOC1O[C@H](CO)[C@@H](O)[C@H](O)[C@@H]1O)NC(=O)[C@H](CCCCNC(=O)CCCCCNC(=O)CN(CC(=O)N(CCOC1O[C@H](CO)[C@@H](O)[C@H](O)[C@@H]1O)CCOC1O[C@H](CO)[C@@H](O)[C@H](O)[C@@H]1O)CC(=O)N(CCOC1O[C@H](CO)[C@@H](O)[C@H](O)[C@@H]1O)CCOC1O[C@H](CO)[C@@H](O)[C@H](O)[C@@H]1O)NC(=O)CCCCCNC(=O)CN(CC(=O)N(CCOC1O[C@H](CO)[C@@H](O)[C@H](O)[C@@H]1O)CCOC1O[C@H](CO)[C@@H](O)[C@H](O)[C@@H]1O)CC(=O)N(CCOC1O[C@H](CO)[C@@H](O)[C@H](O)[C@@H]1O)CCOC1O[C@H](CO)[C@@H](O)[C@H](O)[C@@H]1O (stereo partly shown) [IOC-61] |  | 1.89 | 1.12 |  |
| CC(=O)[C@H](CCCCN)NC(=O)CCCCCNC(=O)[C@H](CCCCNC(=O)CCCCC(=O)NCCO[C@H]1O[C@H](CO[C@H]2O[C@H](CO)[C@@H](O)[C@H](O)[C@@H]2O)[C@@H](O)[C@H](O[C@H]2O[C@H](CO)[C@@H](O)[C@H](O)[C@@H]2O)[C@@H]1O)NC(=O)[C@H](CCCCNC(=O)CCCCC(=O)NCCO[C@H]1O[C@H](CO[C@H]2O[C@H](CO)[C@@H](O)[C@H](O)[C@@H]2O)[C@@H](O)[C@H](O[C@H]2O[C@H](CO)[C@@H](O)[C@H](O)[C@@H]2O)[C@@H]1O)NC(=O)CCCCC(=O)NCCO[C@H]1O[C@H](CO[C@H]2O[C@H](CO)[C@@H](O)[C@H](O)[C@@H]2O)[C@@H](O)[C@H](O[C@H]2O[C@H](CO)[C@@H](O)[C@H](O)[C@@H]2O)[C@@H]1O [IOC-7] |  | 7.17 |  |  |
| CC(=O)[C@H](CCCCN)NC(=O)CCCCC(=O)NCC(=O)N[C@@H](CCC(=O)N[C@@H](CCC(=O)NCCCCCC(=O)N(CCOC1O[C@H](CO)[C@@H](O)[C@H](O)[C@@H]1O)CCO[C@H]1O[C@H](CO)[C@@H](O)[C@H](O)[C@@H]1O)C(=O)NCCCCCC(=O)N(CCOC1O[C@H](CO)[C@@H](O)[C@H](O)[C@@H]1O)CCOC1O[C@H](CO)[C@@H](O)[C@H](O)[C@@H]1O)C(=O)NCCCCCC(=O)NCCO[C@H]1O[C@H](CO[C@H]2O[C@H](CO)[C@@H](O)[C@H](O)[C@@H]2O)[C@@H](O)[C@H](O[C@H]2O[C@H](CO)[C@@H](O)[C@H](O)[C@@H]2O)[C@@H]1O (stereo partly shown) [IOC-29] |  |  |  | 18.5 |
| CC(=O)[C@H](CCCCN)NC(=O)CCCCC(=O)N[C@@H](CCC(=O)NCCCC[C@@H](C(=O)NCCO[C@@H]1O[C@H](CO)[C@@H](O)[C@H](O)[C@H]1O)N(CC(=O)NCCO[C@@H]1O[C@H](CO)[C@@H](O)[C@H](O)[C@H]1O)CC(=O)NCCO[C@@H]1O[C@H](CO)[C@@H](O)[C@H](O)[C@H]1O)C(=O)N[C@@H](CCC(=O)NCCCC[C@@H](C(=O)NCCO[C@@H]1O[C@H](CO)[C@@H](O)[C@H](O)[C@H]1O)N(CC(=O)NCCO[C@@H]1O[C@H](CO)[C@@H](O)[C@H](O)[C@H]1O)CC(=O)NCCO[C@@H]1O[C@H](CO)[C@@H](O)[C@H](O)[C@H]1O)C(=O)N[C@@H](CC(C)C)C(=O)NCCCC[C@@H](C(=O)NCCO[C@@H]1O[C@H](CO)[C@@H](O)[C@H](O)[C@H]1O)N(CC(=O)NCCO[C@@H]1O[C@H](CO)[C@@H](O)[C@H](O)[C@H]1O)CC(=O)NCCO[C@@H]1O[C@H](CO)[C@@H](O)[C@H](O)[C@H]1O [IOC-57] |  | 1560 |  |  |
| CC(=O)[C@H](CCCCN)NC(=O)CCCCC(=O)N[C@@H](CCC(=O)NCCO[C@H]1O[C@H](CO)[C@@H](O)[C@H](O)[C@@H]1O)C(=O)N[C@@H](CCC(=O)NCCO[C@H]1O[C@H](CO)[C@@H](O)[C@H](O)[C@@H]1O)C(=O)N[C@@H](CCC(=O)NCCO[C@H]1O[C@H](CO)[C@@H](O)[C@H](O)[C@@H]1O)C(=O)NCCO[C@H]1O[C@H](CO)[C@@H](O)[C@H](O)[C@@H]1O [IOC-16] |  | 86.7 |  |  |
| CC(=O)[C@H](CCCCN)NC(=O)CCCCC(=O)NCC(=O)N[C@@H](CCC(=O)N[C@@H](CCC(=O)NCCCCCC(=O)N(CCOC1O[C@H](CO)[C@@H](O)[C@H](O)[C@@H]1O)CCOC1O[C@H](CO)[C@@H](O)[C@H](O)[C@@H]1O)C(=O)NCCCCCC(=O)N(CCOC1O[C@H](CO)[C@@H](O)[C@H](O)[C@@H]1O)CCOC1O[C@H](CO)[C@@H](O)[C@H](O)[C@@H]1O)C(=O)NCCCCCC(=O)NCCO[C@@H]1O[C@H](CO[C@H]2O[C@H](CO)[C@@H](O)[C@H](O)[C@@H]2O)[C@@H](O)[C@H](O[C@H]2O[C@H](CO)[C@@H](O)[C@H](O)[C@@H]2O)[C@@H]1O (stereo partly shown) [IOC-28] |  |  |  | 10.9 |
